# Test results published in US10590143B2, “Herbicidally active (alkynyl-phenyl)-substituted cyclic dione compounds and derivatives thereof” (Syngenta Limited, priority 2013, dated 2020).
# Assays:
# Assay in all cases: Biological Example 2 glasshouse assay for herbicidal activity
# Format in all cases: in vivo
# [1] = test system: Glycine max (GLXMA, soybean); conditions: post-emergence, 360 h, 14 or 15 DAA, 0.2% v/v X-77, read-out: percentage phytotoxicity GLXMA
# Summary of the method: (§1)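 Herbicide applied as a spray (IF50 formulation, 0.2% v/v X-77 adjuvant) to soil-grown plants pre-emergence or post-emergence. Ratings were taken 20 DAA or 14–15 DAA respectively, on a 0–100% scale.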
# [2] = test system: Triticum aestivum (TRZAW, winter wheat); conditions: post-emergence, 360 h, 30 g/ha, 14 or 15 DAA, 0.2% v/v X-77, read-out: percentage phytotoxicity TRZAW
# Summary of the method: (§2)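 Visual % phytotoxicity (100% = total damage, 0% = none), scored 14 or 15 DAA post-emergence or 20 DAA pre-emergence. The spray was the IF50 emulsifiable formulation in aqueous 0.2% v/v X-77 at rate-dependent concentration. Glasshouse: 24/18 °C day/night for warm-season BRAPL, 20/16 °C for cool-season wheat, ALOMY and sugarbeet.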
# [3] = test system: Alopecurus myosuroides (ALOMY); conditions: post-emergence, 360 h, 14 or 15 DAA, 0.2% v/v X-77, read-out: percentage phytotoxicity ALOMY
# Summary of the method: as §2
# [4] = test system: Avena fatua (AVEFA); conditions: post-emergence, 360 h, 14 or 15 DAA, 0.2% v/v X-77, read-out: percentage phytotoxicity AVEFA
# Summary of the method: as §1
# [5] = test system: Zea mays (ZEAMX, corn, maize, e.g. volunteer corn); conditions: Zea mays, post-emergence, 360 h, 14 or 15 DAA, 0.2% v/v X-77, read-out: percentage phytotoxicity ZEAMX
# Summary of the method: as §1
# [6] = test system: Beta vulgaris (BEAVA, sugarbeet); conditions: post-emergence, 360 h, 14 or 15 DAA, 0.2% v/v X-77, read-out: percentage phytotoxicity BEAVA
# Summary of the method: as §2
# [7] = test system: Echinochloa crus-galli (ECHCG); conditions: Echinochloa crus-galli, post-emergence, 360 h, 14 or 15 DAA, 0.2% v/v X-77, read-out: percentage phytotoxicity ECHCG
# Summary of the method: as §1
# [8] = test system: SORVU (Sorghum bicolor (L.) Moench ssp. Bicolor, or Sorghum vulgare Pers.); conditions: post-emergence, 360 h, 14 or 15 DAA, 0.2% v/v X-77, read-out: percentage phytotoxicity SORVU
# Summary of the method: as §1
# [9] = test system: Setaria faberi (SETFA); conditions: post-emergence, 360 h, 14 or 15 DAA, 0.2% v/v X-77, read-out: percentage phytotoxicity SETFA
# Summary of the method: as §1
# [10] = test system: Brachiaria plantaginea (BRAPL); conditions: Urochloa plantaginea, post-emergence, 360 h, 14 or 15 DAA, 0.2% v/v X-77, read-out: percentage phytotoxicity BRAPL
# Summary of the method: as §2
# [11] = test system: Digitaria sanguinalis (DIGSA); conditions: post-emergence, 360 h, 14 or 15 DAA, 0.2% v/v X-77, read-out: percentage phytotoxicity DIGSA
# Summary of the method: as §1
structure (smiles),measurement,setting,value
"CC#Cc1cc(F)c(C2=C(OC(=O)c3ccccc3)C3CCC(C3)C2=O)c(OC)c1 (stereo not drawn) [Compound P5, [3-(2-fluoro-6-methoxy-4-prop-1-ynyl-phenyl)-4-oxo-2-bicyclo[3.2.1]oct-2-enyl]benzoate]",plant injury at 30 g/ha,[1]; 30 g/ha,0%
same,plant injury at 250 g/ha,[1]; 250 g/ha,0%
same,plant injury at 30 g/ha,[2],50%
same,pest or weed control at 30 g/ha,[3]; 30 g/ha,70%
same,pest or weed control at 250 g/ha,[3]; 250 g/ha,90%
same,pest or weed control at 30 g/ha,[4]; 30 g/ha,80%
same,pest or weed control at 250 g/ha,[4]; 250 g/ha,90%
same,pest or weed control at 30 g/ha,[5]; 30 g/ha,90%
same,pest or weed control at 250 g/ha,[5]; 250 g/ha,100%
same,plant injury at 30 g/ha,[6]; 30 g/ha,0%
same,plant injury at 250 g/ha,[6]; 250 g/ha,0%
same,pest or weed control at 30 g/ha,[7]; 30 g/ha,100%
same,pest or weed control at 250 g/ha,[7]; 250 g/ha,100%
same,pest or weed control at 30 g/ha,[8]; 30 g/ha,80%
same,pest or weed control at 250 g/ha,[8]; 250 g/ha,100%
same,pest or weed control at 30 g/ha,[9]; 30 g/ha,80%
same,pest or weed control at 250 g/ha,[9]; 250 g/ha,90%
same,pest or weed control at 30 g/ha,[10]; 30 g/ha,90%
same,pest or weed control at 250 g/ha,[10]; 250 g/ha,100%
same,pest or weed control at 30 g/ha,[11]; 30 g/ha,100%
same,pest or weed control at 250 g/ha,[11]; 250 g/ha,100%
